Measurements as given in patent US6716867B1, “Use of dexmedetomidine for ICU sedation” (priority 1998, dated 2004).
“And” between values parts separate entries of the source, which are not always exact repeats. Equal entries are not always repeated. Where two headings read alike, the source gives them in different places.

Assays:
[1] = tested on: postoperative coronary artery bypass graft(s) patients (CABG), requiring sedation in the ICU
[2] = tested on: postsurgical ICU patients
Description: (§1) Two Phase III dexmedetomidine multicenter clinical trials (Trial 1 and Trial 2) have been conducted in ICU sedation in Europe and Canada. Each trial had two parts, i.e., an open-label part (Part I) and double-blind, randomized, placebo-controlled part (Part II). The trials were designed to evaluate the reduction in requirements for ICU sedation (as measured by administration of other sedative/analgesic agents) in patients receiving dexmedetomidine. The use of propofol and morphine for sedation and analgesia, respectively, was evaluated in one trial (Trial 1), and midazolam and morphine in the other trial (Trial 2).
(§2) In Part I of the trials patients were to be administered a 6.0 μg/kg/h loading dose of dexmedetomidine over a 10-minute period, followed by an initial maintenance infusion of 0.4 μg/kg/h. During Part II of the study, patients were randomly assigned to receive either placebo (0.9% sodium chloride solution) or dexmedetomidine. […] The dexmedetomidine dosing protocol was the same as in the Part I of the study. […] Following extubation, the infusion rate was to be adjusted to achieve a Ramsay Sedation Score of 2 or higher.
(§3) During the 10-minute loading dose, additional medication was to be avoided, but propofol (0.2-mg/kg bolus) in Trial 1 and midazolam (1-mg bolus) in Trial 2 could be given if necessary. During dexmedetomidine infusion, rescue medications were limited to propofol (0.2 mg/kg IV boluses) in Trial 1 and midazolam ([…]) in Trial 2 for sedation and morphine for pain (2-mg IV boluses). After extubation, paracetamol was to be permitted for pain as clinically indicated. Propofol and midazolam were to be given only after increasing the dexmedetomidine infusion rate. Dexmedetomidine administration in Parts I and II was to begin within 1 hour of admission to the ICU and to be continued for 6 hours after extubation to a maximum of 24 hours total study drug infusion. Patients were observed and assessed for an additional 24 hours after cessation of dexmedetomidine.
The following 16 cases are from the above mentioned Part II of trials 1 and 2.

ICU patients [3] = test: Phase III multicenter ICU sedation trial, Trial 1 (propofol and morphine as rescue); details: for dexmedetomidine-treated patients who died: none considered related to dexmedetomidine
Description: as §1, §2, §3

[4] = tested on: postoperative CABG patients requiring mechanical ventilation in the ICU
Description: A double-blind, randomized, placebo-controlled study was conducted to evaluate the efficacy, safety, and titratability of dexmedetomidine in mechanically ventilated patients requiring sedation in the ICU. […] Twelve adult postoperative CABG patients requiring mechanical ventilation in the ICU who met the study selection criteria were eligible for participation.
The selection criteria were as follows. The patients required sedation for mechanical ventilation for a minimum of 8 hours following surgery, followed by continued sedation for 6 hours after extubation. The patients were not to have been intubated longer than 24 hours to be evaluable for the test. The patients received only morphine for management for pain and received none of the following medications during study drug administration: sedating agents other than midazolam, neuromuscular blocking agents except for insertion of the endotrachael tube, epidural or spinal analgesic/anesthetic agents.
Safety was evaluated through the monitoring of adverse events, cardiac monitoring, laboratory tests, vital signs, oxygen saturation, and concomitant medications.
Twelve patients were randomly assigned to receive either dexmedetomidine or placebo with rescue treatment for sedation with midazolam, as clinically indicated. Patients randomized to dexmedetomidine were to receive a 10-minute loading dose of 6.0 μg/kg/h, followed by an initial maintenance infusion. The rate of maintenance infusion was 0.4 μg/kg/h. The maintenance rate of infusion could be titrated in increments of 0.1 μg/kg/h to achieve and maintain a Ramsey Sedation Score of 3 or higher. The range for the maintenance infusion was to be kept between 0.2 and 0.7 μg/kg/h. Dexmedetomidine administration was to begin within one hour after admission to the ICU and continued until 6 hours after extubation. […] The placebo was 0.9% sodium chloride solution administered the same way dexmedetomidine was administered.

ICU patients [5] = test: Phase III multicenter ICU sedation trial, Trial 2 (midazolam and morphine as rescue)
Description: as §1, §2, §3

[6] = case 4, immediately after extubation

## Cc1cccc([C@H](C)c2c[nH]cn2)c1C [dexmedetomidine, (+)-(S)-4-[1-(2,3-dimethylphenyl)ethyl]-1H-imidazole]
[1]; 12 patients, infusion 0.2 to 0.7 μg/kg/h
  patients who required morphine for pain: Two
[1]; 12 patients, circulatory failure and myocardial infarction, infarction had little or no temporal relationship to dexmedetomidine
  patients with serious adverse events: One
[1]; dexmedetomidine as only pharmaceutical
  quality of sedation: conveniently sedated, hemodynamically stable, and remained easily arousable
[1]; during administration of dexmedetomidine
  blood pressure and heart rate variability: decreased
[1]; iv loading 6 μg/kg/h over 10 min, then maintenance 0.2 or 0.4 μg/kg/h
  time until clinical effects of sedation became evident: 15 to 30 min
[2]; case 1, 5 minutes before extubation
  morphine doses required while receiving dexmedetomidine: one
[2]; case 1, after the first hour
  Ramsay Sedation Score: 3
[2]; case 1, during the first hour
  Ramsay Sedation Score: 6
[2]; case 1, later
  Ramsay Sedation Score: 2
[2]; case 2, during the 12-hour infusion 0.2 to 0.7 μg/kg/h
  analgesic requirement: required no morphine or other analgesic
[2]; case 3, after the first hour
  Ramsay Sedation Score: 4
[2]; case 3, during the first hour (baseline score, fully anaesthetized after surgery)
  Ramsay Sedation Score: 6
[2]; case 3, maintenance 0.2 to 0.3 μg/kg/h
  midazolam and morphine requirement: required no midazolam or morphine
[2]; case 3, subsequently
  Ramsay Sedation Score: 3
[2]; [6]
  midazolam required: 2 mg
  morphine required: 2 mg
[2]; case 5, after dexmedetomidine infusion was discontinued
  morphine dose required: 76 mg
[2]; case 5, at 46 minutes and again at 66 minutes after start of infusion
  midazolam dose received: 2 mg
[2]; case 5, during dexmedetomidine infusion
  initial postoperative morphine requirements: 24 mg
[2]; case 6
  morphine requirement while on dexmedetomidine: required no morphine
[2]; case 6, after extubation and cessation of infusion, before discharge from the ICU
  morphine required: 4 mg
[2]; case 6, agitation over endotracheal tube at maximum allowable dose
  midazolam administered, total: 16 mg
[2]; case 6, first few hours after return to the ward
  morphine required: ~50 mg
[2]; case 6, first hours of infusion
  morphine and midazolam requirement: required no morphine or midazolam
[2]; case 6, maintenance 0.4 to 0.7 μg/kg/h
  Ramsey Sedation Score: approximately 4
[2]; case 7, 0.4 titrated to 0.7 μg/kg/h
  Ramsey Sedation Score: approximately 4
[2]; case 7, first 6 hours in the ICU, graft failure with ongoing bleeding
  morphine requirements: fluctuated markedly
[2]; case 8, after propofol discontinued at 3 hours, dexmedetomidine tapered to 0.2 μg/kg/h
  propofol and morphine requirement: No additional propofol or morphine was required
[2]; case 8, dexmedetomidine 0.7 μg/kg/h with propofol 4 mg/kg/h, oversedated
  Ramsey Sedation Score: 6
[2]; case 9, while receiving dexmedetomidine
  Ramsey Sedation Score: 3
[2]; case 10, during the infusion
  additional sedative and analgesia requirement: required no additional sedatives and very little analgesia
[2]; case 10, intubated, infusion 0.4-0.7 μg/kg/h
  Ramsey Sedation Score: 4
[2]; case 11, history of excessive alcohol intake, infusion between 0.3 and 0.7 μ/kg/h
  additional sedative requirement: no additional sedatives were required
[2]; case 12, high preoperative anxiety, infusion 0.2-0.5 μg/kg/h
  anxiolysis and orientation: calm, had no fear or apprehension, and was well oriented
[2]; case 13, FIG. 2
  achievement of desired level of sedation: very easily achieved with little dose adjustment
[2]; case 13, at 6 hours into the study period
  morphine sulfate required (single dose): 2 mg
[2]; case 14, before extubation
  opiate requirement: no opiate was required
[2]; case 14, first half hour
  Ramsey Sedation Score: 6
[2]; case 14, moderate pain after extubation
  morphine required (single injection): 2 mg
[2]; case 14, remainder of ICU stay after titration (score of 2 or 3)
  Ramsey Sedation Score: 2 and 3
[2]; case 15, infusion titrated
  Ramsey Sedation Score: approximately 3
[2]; in vivo
  PaCO2: stable
  blood pressure: transient increase
  blood pressure (hypotension): 70/40
  haemodynamic instability: No evidence of haemodynamic instability
  hemodynamic profile: smooth without hypotension or episodes of bradycardia
  hypotension: one episode of moderate hypotension
  respiratory depressant effect: absence of a respiratory depressant effect
  respiratory depression: no respiratory depression
ICU patients [3]; Trial 1
  morphine required for pain, vs placebo: significantly less
  propofol required for sedation, vs placebo: significantly less
ICU patients [3]; Trial 1, Part I
  dexmedetomidine-treated patients who died: three
ICU patients [3]; Trial 1, Part II, one placebo-treated patient died
  dexmedetomidine-treated patients who died: three
ICU patients [3]; Trial 1, vs placebo-treated patients who received propofol
  speed of achieving sedation levels: more quickly
ICU patients [3]; in vivo
  changes in systolic blood pressure, diastolic blood pressure and heart rate: consistent with the known pharmacological effect of α2-agonists
  respiratory depression: no clinically apparent respiratory depression
  safety and tolerability: safe and well tolerated
[4]; human, in vivo
  midazolam for sedation or morphine for pain required, vs placebo: significantly less
  respiratory depression: no clinically apparent respiratory depression
  safety and tolerability: safe and well tolerated
[4]; six dexmedetomidine-sedated patients, difference to placebo in mean total midazolam dose p=0.010
  need for midazolam rescue for sedation: did not require any midazolam
[4]; vs five of six on placebo, mean total morphine dose difference p=0.040
  patients who required morphine for management of pain: One of six
ICU patients [5]; Trial 2
  midazolam required for sedation, vs placebo: significantly less
  morphine required for pain, vs placebo: significantly less
ICU patients [5]; Trial 2, Part I and Part II, five placebo-treated patients died
  deaths among dexmedetomidine-treated patients: No deaths
ICU patients [5]; Trial 2, vs placebo-treated patients who received midazolam
  speed of achieving sedation levels: more quickly
ICU patients [5]; in vivo
  changes in systolic blood pressure, diastolic blood pressure and heart rate: consistent with the known pharmacological effect of α2-agonists
  respiratory depression: no clinically apparent respiratory depression
  safety and tolerability: safe and well tolerated
